From US8415469B2, “Compounds and methods for kinase modulation, and indications therefor” (Plexxikon Inc., priority 2005, dated 2013)

Key:
Assay type in all cases: biochemical
[1] = target: T1, Jnk1 (Homo sapiens, UniProt P45983); assay: AlphaScreen kinase assay, Jnk1; settings: read-out: IC50, activity toward kinase Jnk1
T1 construct: purchased Upstate Biotechnology

[2] = target: T2, B-Raf V600E (Homo sapiens, UniProt P15056, V600E); assay: AlphaScreen kinase assay, B-Raf V600E; settings: read-out: IC50, activity toward kinase B-Raf V600E
T2 construct: P4254. pFastBacBD-CDC37 BRAF D437-K722-X, V600E; His6 with pFastBac HT leader (TEV site) (N); made in house; host or cells: Sf9 (baculovirus; chaperone CDC37 co-expressed)

[3] = target: T3, Fms (Homo sapiens, UniProt P07333); assay: AlphaScreen kinase assay, Fms; settings: read-out: IC50, activity toward kinase Fms
T3 construct: purchased Upstate Biotechnology
Procedure: AlphaScreen assays were done using compounds dissolved in DMSO to a concentration of 20 mM. The compounds were diluted accordingly to the desired final concentrations in each sample well, using 1:3 serial dilution for a total of 8 concentration points. Plates were prepared such that each kinase reaction is 20 μl in 1× kinase buffer, 5% DMSO and 10 μM ATP. After incubation of the kinase reaction for 1 hour at room temperature, 5 μl of donor beads in stop buffer (50 mM EDTA in 1× kinase buffer) was added, the sample was mixed and incubated for 20 minutes at room temperature before adding 5 μl of acceptor beads in stop buffer. The samples were incubated for 60 minutes at room temperature and the signal per well was read on AlphaQuest reader.

[4] = target: T4, B-Raf (Homo sapiens, UniProt P15056); assay: AlphaScreen kinase assay, B-Raf; settings: read-out: IC50, activity toward kinase B-Raf
T4 construct: purchased Upstate Biotechnology

[5] = target: T5, Jnk2 (Homo sapiens, UniProt P45984); assay: AlphaScreen kinase assay, Jnk2; settings: read-out: IC50, activity toward kinase Jnk2
T5 construct: purchased Roche Protein Expression Group (Indianapolis, IN)
Text: AlphaScreen assay was used to screen additional kinases. The assay is similarly dependent on the phosphorylation of a peptide substrate. In this assay, an antibody that recognizes phosphorylated substrate is bound to an acceptor bead. The peptide substrate is attached to biotin, which binds to a donor head that contains streptavidin. Thus phosphorylated substrate is bound by antibody and streptavidin, bringing the donor and acceptor heads into close proximity when kinase is not inhibited. The donor produces singlet oxygen which results in emission from the acceptor when they are in close proximity. Conversely, when kinase is inhibited, the donor and acceptor beads are not associated and the emission from the acceptor is reduced.
AlphaScreen assays were done using compounds dissolved in DMSO to a concentration of 20 mM. The compounds were diluted accordingly to the desired final concentrations in each sample well, using 1:3 serial dilution for a total of 8 concentration points.

[6] = target: T6, Kit (Homo sapiens, UniProt P10721); assay: AlphaScreen kinase assay, Kit; settings: read-out: IC50, activity toward kinase Kit
T6 construct: P1332.N6 BI PTP KIT M552-K948-X COD; His6 (N); made in house; host or cells: E. coli (PTP1B co-expressed)

[7] = target: T7, Flt1 (Homo sapiens, UniProt P17948); assay: AlphaScreen kinase assay, Flt1; settings: read-out: IC50, activity toward kinase Flt1
T7 construct: P1826.pETN6 BI-PTP FLT1 M799-D1165-X WT; His6 (N); made in house; host or cells: E. coli (PTP1B co-expressed)
T7 sequence (P17948 with tags, fused parts or gaps): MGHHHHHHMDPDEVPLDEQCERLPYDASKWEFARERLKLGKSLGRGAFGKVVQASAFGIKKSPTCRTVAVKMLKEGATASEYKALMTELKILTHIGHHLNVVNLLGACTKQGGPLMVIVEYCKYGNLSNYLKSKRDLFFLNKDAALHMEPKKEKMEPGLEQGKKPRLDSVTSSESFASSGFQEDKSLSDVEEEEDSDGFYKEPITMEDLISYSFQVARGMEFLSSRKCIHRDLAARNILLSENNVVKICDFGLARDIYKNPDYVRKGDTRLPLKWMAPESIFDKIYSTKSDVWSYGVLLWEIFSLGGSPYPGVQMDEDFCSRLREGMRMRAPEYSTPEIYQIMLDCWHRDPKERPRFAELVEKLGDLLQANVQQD

[8] = target: T8, c-Raf-1 (Homo sapiens, UniProt P04049); assay: AlphaScreen kinase assay, c-Raf-1; settings: read-out: IC50, activity toward kinase c-Raf-1
T8 construct: purchased Upstate Biotechnology

[9] = target: T9, FGFR1 (Homo sapiens, UniProt P11362, C488A/C584S); assay: AlphaScreen kinase assay, FGFR1; settings: read-out: IC50, activity toward kinase FGFR
T9 construct: P1351.pET N6 BI-PTP FGFR A458-E765-X C488A, C584S; made in house; host or cells: E. coli (PTP1B co-expressed)

[10] = target: T10, Ret (Homo sapiens, UniProt P07949); assay: AlphaScreen kinase assay, Ret; settings: read-out: IC50, activity toward kinase Ret
T10 construct: P1378.pET-SF BI-PTP RET H661-R1012 HIS; made in house
T10 sequence (P07949 with tags, fused parts or gaps): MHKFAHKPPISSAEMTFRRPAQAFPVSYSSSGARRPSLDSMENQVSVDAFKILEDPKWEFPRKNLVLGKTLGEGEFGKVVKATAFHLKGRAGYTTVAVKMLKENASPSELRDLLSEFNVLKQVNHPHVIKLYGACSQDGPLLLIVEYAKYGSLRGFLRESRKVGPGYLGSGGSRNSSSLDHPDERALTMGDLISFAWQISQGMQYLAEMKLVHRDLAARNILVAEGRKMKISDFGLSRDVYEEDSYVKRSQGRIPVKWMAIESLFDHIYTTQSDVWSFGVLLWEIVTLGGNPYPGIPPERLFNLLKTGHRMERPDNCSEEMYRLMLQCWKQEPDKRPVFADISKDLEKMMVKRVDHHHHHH

[11] = target: T11, Jnk3 (Homo sapiens, UniProt P53779); assay: AlphaScreen kinase assay, Jnk3; settings: read-out: IC50, activity toward kinase Jnk3
T11 construct: purchased Upstate Biotechnology

Measured: IC50

T5 sequence (P45984 whole entry): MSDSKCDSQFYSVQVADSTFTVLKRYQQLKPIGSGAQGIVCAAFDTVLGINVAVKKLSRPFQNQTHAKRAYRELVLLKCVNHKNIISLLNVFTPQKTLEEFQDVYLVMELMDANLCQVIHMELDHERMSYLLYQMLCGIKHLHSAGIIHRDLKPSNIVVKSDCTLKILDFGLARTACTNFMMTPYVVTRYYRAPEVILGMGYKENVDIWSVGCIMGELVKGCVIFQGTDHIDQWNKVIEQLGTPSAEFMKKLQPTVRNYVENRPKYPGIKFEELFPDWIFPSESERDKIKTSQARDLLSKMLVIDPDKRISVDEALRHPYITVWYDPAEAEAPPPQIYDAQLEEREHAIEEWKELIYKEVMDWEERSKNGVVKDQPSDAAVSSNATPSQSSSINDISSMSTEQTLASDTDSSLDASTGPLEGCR
T6 sequence (P10721 with tags, fused parts or gaps): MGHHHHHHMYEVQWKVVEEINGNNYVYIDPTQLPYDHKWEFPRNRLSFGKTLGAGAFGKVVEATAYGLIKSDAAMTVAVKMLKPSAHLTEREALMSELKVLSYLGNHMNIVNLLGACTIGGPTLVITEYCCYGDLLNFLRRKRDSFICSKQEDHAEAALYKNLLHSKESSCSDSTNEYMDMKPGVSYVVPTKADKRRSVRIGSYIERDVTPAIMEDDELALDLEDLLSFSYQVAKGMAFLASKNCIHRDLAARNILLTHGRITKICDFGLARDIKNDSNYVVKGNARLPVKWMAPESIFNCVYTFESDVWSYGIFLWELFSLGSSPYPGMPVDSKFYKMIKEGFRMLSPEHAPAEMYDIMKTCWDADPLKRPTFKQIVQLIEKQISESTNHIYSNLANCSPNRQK
T1 sequence (P45983 whole entry): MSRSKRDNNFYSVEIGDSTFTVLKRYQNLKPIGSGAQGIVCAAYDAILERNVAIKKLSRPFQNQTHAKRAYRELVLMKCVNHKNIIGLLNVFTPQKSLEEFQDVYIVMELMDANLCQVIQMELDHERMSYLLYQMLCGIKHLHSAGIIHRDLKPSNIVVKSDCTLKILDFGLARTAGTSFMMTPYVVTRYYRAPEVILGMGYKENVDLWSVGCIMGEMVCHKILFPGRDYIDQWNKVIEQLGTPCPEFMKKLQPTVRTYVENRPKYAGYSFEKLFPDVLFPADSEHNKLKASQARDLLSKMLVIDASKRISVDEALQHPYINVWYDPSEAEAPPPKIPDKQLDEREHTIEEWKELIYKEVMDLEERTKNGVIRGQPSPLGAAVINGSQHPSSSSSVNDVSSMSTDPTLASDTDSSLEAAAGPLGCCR
T4 sequence (P15056 whole entry): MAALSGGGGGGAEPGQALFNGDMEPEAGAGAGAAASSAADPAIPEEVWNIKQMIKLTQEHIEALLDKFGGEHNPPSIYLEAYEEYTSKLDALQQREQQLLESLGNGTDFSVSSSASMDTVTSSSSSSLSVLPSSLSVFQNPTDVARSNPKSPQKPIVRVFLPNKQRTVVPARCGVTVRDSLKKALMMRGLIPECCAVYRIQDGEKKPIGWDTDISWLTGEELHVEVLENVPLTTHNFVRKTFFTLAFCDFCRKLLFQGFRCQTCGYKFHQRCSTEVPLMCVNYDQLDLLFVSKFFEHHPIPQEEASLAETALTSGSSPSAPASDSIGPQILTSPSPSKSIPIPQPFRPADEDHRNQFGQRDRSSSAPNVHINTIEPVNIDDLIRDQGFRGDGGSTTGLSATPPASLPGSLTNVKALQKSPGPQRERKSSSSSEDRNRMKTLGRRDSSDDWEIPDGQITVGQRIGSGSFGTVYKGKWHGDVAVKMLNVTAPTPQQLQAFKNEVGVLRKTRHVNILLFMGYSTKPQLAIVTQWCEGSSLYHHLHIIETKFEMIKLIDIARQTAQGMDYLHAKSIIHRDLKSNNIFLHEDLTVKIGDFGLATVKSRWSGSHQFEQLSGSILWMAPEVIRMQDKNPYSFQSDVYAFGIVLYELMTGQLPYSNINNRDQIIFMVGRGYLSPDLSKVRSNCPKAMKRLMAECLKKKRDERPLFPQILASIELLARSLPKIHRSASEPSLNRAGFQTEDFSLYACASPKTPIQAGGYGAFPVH
T8 sequence (P04049 whole entry): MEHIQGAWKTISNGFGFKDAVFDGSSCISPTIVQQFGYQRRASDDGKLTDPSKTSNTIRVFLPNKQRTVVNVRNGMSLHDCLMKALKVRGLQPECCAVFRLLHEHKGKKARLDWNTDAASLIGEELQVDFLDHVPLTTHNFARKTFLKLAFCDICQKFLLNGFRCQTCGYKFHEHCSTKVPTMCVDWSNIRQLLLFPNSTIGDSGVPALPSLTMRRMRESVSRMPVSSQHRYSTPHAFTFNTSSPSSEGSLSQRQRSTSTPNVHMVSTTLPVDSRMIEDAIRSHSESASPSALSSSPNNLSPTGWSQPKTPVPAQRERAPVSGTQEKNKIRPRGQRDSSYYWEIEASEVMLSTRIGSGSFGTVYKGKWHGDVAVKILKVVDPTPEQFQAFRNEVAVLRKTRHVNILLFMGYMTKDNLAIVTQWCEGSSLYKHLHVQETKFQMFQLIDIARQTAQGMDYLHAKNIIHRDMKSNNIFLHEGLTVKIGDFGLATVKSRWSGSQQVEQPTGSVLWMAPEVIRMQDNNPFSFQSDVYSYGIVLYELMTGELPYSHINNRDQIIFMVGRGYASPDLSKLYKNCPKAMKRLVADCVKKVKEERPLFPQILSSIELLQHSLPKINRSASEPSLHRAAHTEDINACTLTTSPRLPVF
T3 sequence (P07333 20-972): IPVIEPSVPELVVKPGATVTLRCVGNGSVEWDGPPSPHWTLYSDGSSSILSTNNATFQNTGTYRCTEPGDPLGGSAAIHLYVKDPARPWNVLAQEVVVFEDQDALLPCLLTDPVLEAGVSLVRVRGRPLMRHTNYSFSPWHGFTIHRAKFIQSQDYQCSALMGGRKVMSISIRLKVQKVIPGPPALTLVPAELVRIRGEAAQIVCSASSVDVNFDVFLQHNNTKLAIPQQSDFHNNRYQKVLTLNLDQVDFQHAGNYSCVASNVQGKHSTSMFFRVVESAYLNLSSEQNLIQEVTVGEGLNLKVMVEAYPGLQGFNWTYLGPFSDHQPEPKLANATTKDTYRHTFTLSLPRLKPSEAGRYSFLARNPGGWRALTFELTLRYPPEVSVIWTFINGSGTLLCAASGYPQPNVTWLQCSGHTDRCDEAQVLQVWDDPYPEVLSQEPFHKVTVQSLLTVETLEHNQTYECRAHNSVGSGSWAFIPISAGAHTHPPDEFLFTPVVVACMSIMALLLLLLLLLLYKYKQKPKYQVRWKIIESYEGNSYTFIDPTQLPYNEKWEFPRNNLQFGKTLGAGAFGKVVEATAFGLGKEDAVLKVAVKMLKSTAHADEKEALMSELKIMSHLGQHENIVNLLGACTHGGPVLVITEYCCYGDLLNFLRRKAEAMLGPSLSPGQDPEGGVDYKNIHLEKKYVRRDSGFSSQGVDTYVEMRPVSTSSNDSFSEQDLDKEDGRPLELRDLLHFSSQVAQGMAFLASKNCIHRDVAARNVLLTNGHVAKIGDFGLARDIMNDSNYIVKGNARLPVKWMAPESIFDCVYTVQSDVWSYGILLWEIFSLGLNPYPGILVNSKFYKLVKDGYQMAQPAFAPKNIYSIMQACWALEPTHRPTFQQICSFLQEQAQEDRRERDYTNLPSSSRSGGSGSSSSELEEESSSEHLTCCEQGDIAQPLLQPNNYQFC
T2 sequence (P15056 with tags, fused parts or gaps V600E): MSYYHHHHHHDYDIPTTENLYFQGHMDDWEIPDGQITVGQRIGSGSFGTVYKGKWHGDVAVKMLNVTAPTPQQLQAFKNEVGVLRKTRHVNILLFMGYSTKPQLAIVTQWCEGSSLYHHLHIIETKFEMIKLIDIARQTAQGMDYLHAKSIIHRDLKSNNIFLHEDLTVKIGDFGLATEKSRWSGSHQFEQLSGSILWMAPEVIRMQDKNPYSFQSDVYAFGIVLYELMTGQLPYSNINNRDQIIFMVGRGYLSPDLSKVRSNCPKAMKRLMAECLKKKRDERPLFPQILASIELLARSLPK
T11 sequence (P53779 whole entry): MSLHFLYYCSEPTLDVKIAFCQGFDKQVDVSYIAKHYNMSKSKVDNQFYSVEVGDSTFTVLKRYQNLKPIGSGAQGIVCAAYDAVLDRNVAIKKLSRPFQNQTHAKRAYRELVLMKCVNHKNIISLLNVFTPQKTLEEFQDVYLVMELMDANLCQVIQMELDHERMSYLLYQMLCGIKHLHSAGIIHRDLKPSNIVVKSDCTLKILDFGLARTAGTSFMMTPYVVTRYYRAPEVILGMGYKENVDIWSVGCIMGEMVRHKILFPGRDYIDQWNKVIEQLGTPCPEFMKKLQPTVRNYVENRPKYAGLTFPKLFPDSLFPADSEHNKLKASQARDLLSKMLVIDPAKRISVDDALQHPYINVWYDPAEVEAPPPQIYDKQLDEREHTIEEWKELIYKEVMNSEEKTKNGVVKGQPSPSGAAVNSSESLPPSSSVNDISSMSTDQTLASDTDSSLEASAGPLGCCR
T9 sequence (P11362 458-765 C488A/C584S): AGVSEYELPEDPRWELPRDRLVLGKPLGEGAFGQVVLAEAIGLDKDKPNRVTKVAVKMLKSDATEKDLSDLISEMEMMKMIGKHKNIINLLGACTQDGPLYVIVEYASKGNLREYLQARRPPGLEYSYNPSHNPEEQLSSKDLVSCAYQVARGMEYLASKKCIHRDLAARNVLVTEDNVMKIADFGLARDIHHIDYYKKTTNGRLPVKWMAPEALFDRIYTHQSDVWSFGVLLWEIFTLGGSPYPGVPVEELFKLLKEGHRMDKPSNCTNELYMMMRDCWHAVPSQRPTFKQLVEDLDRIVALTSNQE

O=C(Nc1cccc(C(=O)c2c[nH]c3ncc(-c4cccnc4)cc23)c1)Nc1cccc(C(F)(F)F)c1 [Compound P-1755, 1-[3-(5-Pyridin-3-yl-1H-pyrrolo[2,3-b]pyridine-3-carbonyl)-phenyl]-3-(3-trifluoromethyl-phenyl)-urea]
≤ 10 µM: [1] | [2] | [3] | [4] | [5]

O=C(Nc1cccc(F)c1)Nc1cccc(C(=O)c2c[nH]c3ncc(-c4cccnc4)cc23)c1 [Compound P-1730, 1-(3-Fluoro-phenyl)-3-[3-(5-pyridin-3-yl-1H-pyrrolo[2,3-b]pyridine-3-carbonyl)-phenyl]-urea]
≤ 10 µM: [1] | [2] | [3] | [4] | [5]

CCc1ccc(S(=O)(=O)Nc2ccc(F)c(C(=O)c3c[nH]c4ncc(Cl)cc34)c2F)cc1 [Compound P-1700, N-[3-(5-Chloro-1H-pyrrolo[2,3-b]pyridine-3-carbonyl)-2,4-difluoro-phenyl]-4-ethyl-benzenesulfonamide]
≤ 10 µM: [2] | [3] | [4] | [6] | [5]

O=C(Nc1ccc(F)c(Cc2c[nH]c3ncc(Cl)cc23)c1F)NC1CCCC1 [Compound P-1575, 1-[3-(5-Chloro-1H-pyrrolo[2,3-b]pyridin-3-ylmethyl)-2,4-difluoro-phenyl]-3-cyclopentyl-urea]
≤ 10 µM: [2] | [7] | [3] | [6] | [5]

CCCCNC(=O)n1ccc2c(Cc3c[nH]c4ncc(-c5cccnc5)cc34)cccc21 [Compound P-1656, 4-(5-pyridin-3-yl-1H-pyrrolo[2,3-b]pyridin-3-ylmethyl)-indole-1-carboxylic acid butylamide]
≤ 10 µM: [1] | [2] | [3] | [4] | [5]

O=C(Nc1cccc(C(=O)c2c[nH]c3ncccc23)c1)Nc1ccc(Cl)c(C(F)(F)F)c1 [Compound P-1711, 1-(4-Chloro-3-trifluoromethyl-phenyl)-3-[3-(1H-pyrrolo[2,3-b]pyridine-3-carbonyl)-phenyl]-urea]
≤ 10 µM: [2] | [3] | [4] | [6] | [5]

COc1cc(NC(=O)Nc2cccc(C(=O)c3c[nH]c4ncc(-c5cccnc5)cc34)c2)cc(C(F)(F)F)c1 [Compound P-1778, 1-(3-Methoxy-5-trifluoromethyl-phenyl)-3-[3-(5-pyridin-3-yl-1H-pyrrolo[2,3-b]pyridine-3-carbonyl)-phenyl]-urea]
≤ 10 µM: [1] | [2] | [3] | [4] | [5]

O=C(Nc1cccc(C(=O)c2c[nH]c3ncc(Cl)cc23)c1)Nc1ccc(Cl)c(C(F)(F)F)c1 [Compound P-1737, 1-[3-(5-Chloro-1H-pyrrolo[2,3-b]pyridine-3-carbonyl)-phenyl]-3-(4-chloro-3-trifluoromethyl-phenyl)-urea]
≤ 10 µM: [2] | [8] | [3] | [4] | [6] | [5]

CCCCNC(=O)Nc1ccc(F)c(C(=O)c2c[nH]c3ncc(-c4cccc(S(C)(=O)=O)c4)cc23)c1 [Compound P-1627, 1-Butyl-3-{4-fluoro-3-[5-(3-methanesulfonyl-phenyl)-1H-pyrrolo[2,3-b]pyridine-3-carbonyl]-phenyl}-urea]
≤ 10 µM: [1] | [2] | [3] | [4] | [5]

O=C(Nc1ccc(C(F)(F)F)cc1)Nc1cccc(C(=O)c2c[nH]c3ncc(-c4cccnc4)cc23)c1 [Compound P-1731, 1-[3-(5-Pyridin-3-yl-1H-pyrrolo[2,3-b]pyridine-3-carbonyl)-phenyl]-3-(4-trifluoromethyl-phenyl)-urea]
≤ 10 µM: [1] | [2] | [3] | [4] | [5]

O=C(Nc1cccc(C(=O)c2c[nH]c3ncc(-c4cccnc4)cc23)c1)Nc1ccc(C(F)(F)F)cc1Cl [Compound P-1727, 1-(2-Chloro-4-trifluoromethyl-phenyl)-3-[3-(5-pyridin-3-yl-1H-pyrrolo[2,3-b]pyridine-3-carbonyl)-phenyl]-urea]
≤ 10 µM: [1] | [2] | [3] | [4] | [5]

O=C(Nc1ccc(C(=O)c2c[nH]c3ncccc23)cc1)Nc1cccc(C(F)(F)F)c1 [Compound P-1671]
≤ 10 µM: [2] | [8] | [3] | [4] | [6] | [5]

O=C(c1cccc(O)c1F)c1c[nH]c2ncc(-c3cncnc3)cc12 [Compound P-0744, (2-fluoro-3-hydroxy-phenyl)-(5-pyrimidin-5-yl-1H-pyrrolo[2,3-b]pyridin-3-yl)-methanone]
≤ 10 µM: [2] | [9] | [8] | [4] | [10] | [5]

O=C(Nc1cccc(C(=O)c2c[nH]c3ncc(-c4cccnc4)cc23)c1)Nc1cc(C(F)(F)F)ccc1Cl [Compound P-1732, 1-(2-Chloro-5-trifluoromethyl-phenyl)-3-[3-(5-pyridin-3-yl-1H-pyrrolo[2,3-b]pyridine-3-carbonyl)-phenyl]-urea]
≤ 10 µM: [2] | [3] | [4] | [5]

O=C(Nc1cccc(C(=O)c2c[nH]c3ncc(-c4cccnc4)cc23)c1)Nc1cccc(C(F)(F)F)c1F [Compound P-1728, 1-(2-Fluoro-3-trifluoromethyl-phenyl)-3-[3-(5-pyridin-3-yl-1H-pyrrolo[2,3-b]pyridine-3-carbonyl)-phenyl]-urea]
≤ 10 µM: [2] | [3] | [4] | [5]

CCCCOc1ccc(NC(=O)Nc2cccc(C(=O)c3c[nH]c4ncc(-c5cccnc5)cc34)c2)cc1 [Compound P-1729, 1-(4-Butoxy-phenyl)-3-[3-(5-pyridin-3-yl-1H-pyrrolo[2,3-b]pyridine-3-carbonyl)-phenyl]-urea]
≤ 10 µM: [2] | [3] | [4] | [5]

O=C(Nc1cccc(C(=O)c2c[nH]c3ncc(-c4ccc(F)cc4)cc23)c1)Nc1ccc(C(F)(F)F)cc1Cl [Compound P-1753, 1-(2-Chloro-4-trifluoromethyl-phenyl)-3-{3-[5-(4-fluoro-phenyl)-1H-pyrrolo[2,3-b]pyridine-3-carbonyl]-phenyl}-urea]
≤ 10 µM: [11] | [2] | [3] | [4] | [5]
